Test results as given in patent US9474730B2, “Methods and compositions for use with K-ras mediated disorders” (Board of Regents of the University of Texas System, priority 2012, dated 2016).
Where a name gives a salt, the structure may show the parent alone.

Experiments:
[1] = target: T1, mGFP-tagged K-rasG12V in BHK cells (Homo sapiens, UniProt P01116, G12V); experiment: Immuno-electron microscopy and spatial analysis of plasma membrane sheets, K-rasG12V; format: cell-based, hamster; conditions: 6 μg/mL, 48 h
T1 construct: BHK cells expressing GFP-tagged full length constitutively active Ras (G12V) proteins; expressed in transfected cells
Protocol: (§1) FIG. 4: Illustrates that fendiline HCl alters plasma membrane association and nanoclustering of K-ras: Plasma membrane sheets were generated from cells expressing GFP-K-rasG12V or GFP-H-rasG12V. Cells were treated with vehicle or fendiline HCl (6 μg/mL) for 48 h. Plasma membrane sheets were labeled with anti-GFP antibody conjugated to 4.5 nm gold. The plasma membrane sheets were imaged in an electron microscope and the spatial distribution of the gold labeling was analyzed using Ripley's K-function. Maximum L(r)-r values above the 99% confidence interval (C.I.) for complete spatial randomness (CSR) indicate clustering at that value of r. […] Significant differences from the control pattern for fendiline treated cells were assessed using bootstrap tests, wherein experimentation was performed in accordance with principles described herein;
(§2) Immuno-EM and spatial analysis were conducted exactly as described previously (Hancock, J. F., and Prior, I. A. (2005). Electron microscopic imaging of Ras signaling domains. Methods 37, 165-172; Prior, I. A., Muncke, C., Parton, R. G., and Hancock, J. F. (2003). Direct visualization of Ras proteins in spatially distinct cell surface microdomains. J Cell Biol 160, 165-170). […] Intact 1-μm^2 areas of the plasma membrane sheet were identified using ImageJ, and the x-y coordinates of the gold particles were determined. […]

[2] = test system: human oral cancer cells, PC3 prostate cancer cells and MDCK cells; conditions: cited from earlier work
[3] = test system: BHK cells expressing Myc-B-Raf V600E; experiment: Signaling in cells expressing constitutively active BRaf, Western blotting; format: cell-based, hamster; conditions: 6 μg/mL, 48 h, serum starved BHK cells
Protocol: FIG. 6: Illustrates that fendiline HCl inhibition occurs at the level of Ras: Whole cell lysates from serum starved BHK cells expressing vector control, FLAG-C-Raf-DD-CAAX or Myc-B-Raf V600E treated with vehicle or fendiline HCl (6 μg/mL) for 48 h were analyzed by quantitative Western blotting. Representative Western blots of c-Raf, pMEK, pERK and Actin (loading control) are shown. Data is shown as mean±SEM from 3-4 independent experiments. Statistical significance was calculated using one way ANOVA and Student's T-test. (*=p<0.05), wherein experimentation was performed in accordance with principles described herein;
(§3) Preparation of whole-cell lysates: cells were lysed in Buffer B (50 mM Tris [pH 7.5], 75 mM NaCl, 25 mM NaF, 5 mM MgCl2, 5 mM EGTA, 1 mM dithiothreitol, 100 μM NaVO4, 1% Nonidet P-40 plus protease inhibitors). Cellular fractionation: cells were incubated in Buffer A (10 mm Tris-HCl, pH 7.5, 25 mm NaF, 5 mm MgCl2, 1 mm EGTA, 1 mm dithiothreitol, 100 μm NaVO4 plus protease inhibitors) for 30 minutes on ice and lysed by passing through a 27 G needle 30 times. The post nuclear supernatant was centrifuged at 100,000 g for 30 minutes and the membrane pellet was resuspended in Buffer A containing 1% Triton X-100.
Quantification of intensities was performed using FluorChemQ software.

[4] = target: T2, mGFP-tagged H-rasG12V in BHK cells (Homo sapiens, UniProt P01112, G12V); experiment: Immuno-electron microscopy and spatial analysis of plasma membrane sheets, H-rasG12V; format: cell-based, hamster; conditions: 6 μg/mL, 48 h
T2 construct: BHK cells expressing GFP-tagged full length constitutively active Ras (G12V) proteins; expressed in transfected cells
Protocol: as §1, §2

[5] = target: T3, GFP-K-rasG12V in MDCK or BHK cells (Homo sapiens, UniProt P01116, G12V); experiment: Cellular fractionation (P100/S100) with quantitative Western blotting, GFP-K-rasG12V; format: cell-based, canine (MDCK), hamster (BHK); conditions: 4 μg/mL for MDCK and 6 μg/mL for BHK, 48 hours, vs vehicle
T3 construct: MDCK and BHK cells expressing GFP-tagged full length constitutively active Ras (G12V) proteins; expressed in transfected cells
Protocol: Following treatment, membrane (P100) and soluble (S100) protein fractions were prepared and analyzed by quantitative Western blotting.
as §3
SDS-PAGE and Western blotting with the specified antibody were performed using 20 μg of each whole cell lysate/P100 fraction and volumes of S100 equal to that of the corresponding P100. Signal was detected by enhanced chemiluminescence (SuperSignal; Pierce, Thermo Fisher Scientific, Rockford, Ill.) and imaged by FluorChemQ (Alpha Inotech, San Leandro, Calif., USA). Quantification of intensities was performed using FluorChemQ software.

SMILES: CC(NCCC(c1ccccc1)c1ccccc1)c1ccccc1 (stereo not shown) [fendiline HCl]
- clustering of K-rasG12V on plasma membrane [1]: reduced clustering of both K- and H-rasG12V proteins
- plasma membrane associated K-rasG12V (EM gold labeling) [1]: reduces the plasma membrane associated K-rasG12V
- intracellular Ca2+ [2]: increase intracellular Ca^2+
- signaling downstream of constitutively active BRaf [3]: inhibited signaling downstream of constitutively active BRaf
- clustering of H-rasG12V on plasma membrane [4]: reduced clustering of both K- and H-rasG12V proteins
- membrane association of H-rasG12V (EM gold labeling) [4]: slightly increases membrane association of H-rasG12V
- soluble fraction of GFP-K-rasG12V [5]: increases the soluble fraction of GFP-K-rasG12V
